Assay [1] has as its system IFN‐γ induction. Put plainly: IL-12/IL-18-mediated IFN-γ induction in NK-92 cells. Type of assay: cell-based, human. The following applies: 4 h, 50 ng/ml IL-12 and 10 ng/ml IL-18. As to the method: (§1) NK-92 cells (DSMZ) were cultured in α-MEM containing 12.5% fetal bovine serum (FBS), 12.5% horse serum, 2 mM L-glutamine, penicillin/streptomycin and 50 U/ml IL -2. […]
(§2) NK-92 cells were treated with test compound or DMSO in 1.5 ml medium in 12 -well plates (Corning) for 2 h (final DMSO concentration 0.2%), in the presence of 50 ng/ml IL -12 (PeproTech). For IFN-γ experiments (Figure 6 and S6), NK -92 cells or TALL-104 cells were treated for 4 h in the presence of 50 ng/ml IL-12 and 10 ng/ml IL-18 (Bio-Techne). […]
(§3) The components of cell lysates from treated cells, or heat-treated lysates from CETSA, were separated by SDS-PAGE (10%), transferred to nitrocellulose membrane (Bio-Rad) and detected using monoclonal rabbit primary antibodies (Cell Signaling), α-rabbit-HRP secondary antibody (Dako) and Western Lightning Plus chemiluminescence reagent (Perkin Elmer).
(§4) Bands were visualized using an ImageQuant system (GE Healthcare) and quantitated using ImageJ software (NIH). […]
(§5) The sitting drop was composed of 0.1 µl protein solution and 0.1 µl reservoir solution. Plates were stored at 19°C in a protein […]
(§6) In the first set of experiments, w e tried to crystallize STAT4 as a SUMO -STAT4 fusion protein […]
(§7) was cleaved off as described above.
Screening for crystallization conditions for tag-free STAT4 was performed both in the absence or presence of 1 equivalent of 6m or 6h. […]

For another assay, the system named is STAT5a/5b. Put plainly: STAT5a/5b phosphorylation in K562 cells (Western blot). The class given is cell-based, human. The settings on record: Tyr694 (STAT5a)/Tyr699 (STAT5b), read-out: IC 50, STAT5a/5b‐phosphorylation. As to the method: (§8) Cells were […]
harvested by washing twice with ice -cold TBS, followed by resuspension in TBS supplemented with protease/phosphatase inhibitors (100 ng/ml aprotinin, 1 mM Na3VO4, 10 mM NaF, 1 mM […]
as §3, §4, §5, §6, §7
Screening for crystallization conditions for tag-free STAT4 was performed both in the absence or presence of 1 equivalent of 6m or 6h. Since the chosen protein concentration of 3.6 mg/ml appeared to be too low, screening was repeated with a higher concentration of 6.4 mg/ml STAT4 for all conditions (corresponding to 100 µM 6m). Both the SUMO-STAT4 and the tag-free STAT4 preferentially precipitated under conditions containing polyethylene glycol. […]

Assay [2] concerns IFN‐γ induction. Put plainly: IFN-γ induction in TALL-104 cells. Type of assay: cell-based, human. The settings on record: 4 h, IL-12 or IL-12 and IL-18. As to the method: (§9) NK-92 cells (DSMZ) were cultured in α-MEM containing 12.5% fetal bovine serum (FBS), 12.5% horse serum, 2 mM L-glutamine, penicillin/streptomycin and 50 U/ml IL -2. TALL-104 cells (ATCC, LGC Standards) were cultured in RPMI 1640 medium containing 20% FBS, 2 mM L - glutamine, penicillin/streptomy cin and 100 U/ml IL-2. […]
as §2, §3, §4, §5, §6
(§10) was cleaved off as described above. […]

For assay [3], the target named is T1, STAT4 (Homo sapiens, UniProt Q14765).
T1 sequence (Q14765 1-748): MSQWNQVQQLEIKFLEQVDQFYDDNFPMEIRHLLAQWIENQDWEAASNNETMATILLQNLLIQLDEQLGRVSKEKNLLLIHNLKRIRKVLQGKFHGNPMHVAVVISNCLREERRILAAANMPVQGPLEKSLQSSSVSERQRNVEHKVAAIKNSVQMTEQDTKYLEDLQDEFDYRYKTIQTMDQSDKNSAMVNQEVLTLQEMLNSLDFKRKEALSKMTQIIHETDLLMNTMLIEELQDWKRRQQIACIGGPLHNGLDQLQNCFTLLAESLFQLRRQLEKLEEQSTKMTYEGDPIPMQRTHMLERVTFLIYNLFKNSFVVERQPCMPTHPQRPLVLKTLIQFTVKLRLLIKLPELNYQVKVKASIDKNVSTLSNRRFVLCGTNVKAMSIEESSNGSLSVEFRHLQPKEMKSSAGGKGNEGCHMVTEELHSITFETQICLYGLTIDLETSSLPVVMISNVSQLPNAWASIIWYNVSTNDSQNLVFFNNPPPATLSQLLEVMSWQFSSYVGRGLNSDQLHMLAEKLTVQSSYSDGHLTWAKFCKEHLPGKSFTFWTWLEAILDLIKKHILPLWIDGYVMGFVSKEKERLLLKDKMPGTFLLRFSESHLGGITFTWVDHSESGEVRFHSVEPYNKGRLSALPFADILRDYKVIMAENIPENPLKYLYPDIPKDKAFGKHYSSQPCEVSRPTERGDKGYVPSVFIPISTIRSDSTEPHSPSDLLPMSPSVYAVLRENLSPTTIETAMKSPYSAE
Put plainly: STAT4 phosphorylation in TALL-104 cells stimulated by IL-12 or IL-12 and IL-18. Type of assay: cell-based. On the set-up: utilizing cellular lysates from the STAT4‐expressing natural killer cell line NK‐92; endogenous in cells; host or cells: NK-92 (DSMZ). The settings on record: 4 h. How it is done: as §9, §2, §3, §4, §5, §6, §10

Assay [4] concerns the target T1, STAT4. Put plainly: IL-12-induced STAT4 Tyr693 phosphorylation in NK-92 cells (Western blot). The class given is cell-based. Also on record: utilizing cellular lysates from the STAT4‐expressing natural killer cell line NK‐92; endogenous in cells; host or cells: NK-92 (DSMZ). How it is done:
as §1, §3, §4, §5, §6, §7
Screening for crystallization conditions for tag-free STAT4 was performed both in the absence or presence of 1 equivalent of 6m or 6h. Since the chosen protein concentration of 3.6 mg/ml appeared to be too low, screening was repeated with a higher concentration of 6.4 mg/ml STAT4 for all conditions (corresponding to 100 µM 6m). Both the SUMO-STAT4 and the tag-free STAT4 preferentially precipitated under conditions containing polyethylene glycol. In one set of experiments, we also screened for conditions in the presence of the high-affinity peptide GY(PO3H2)LPQNID adapted from the IL-12 receptor. However, none of the conditions resulted in the growth of STAT4 crystals (Table S4).

The target in the next assay is STAT3 (Homo sapiens, UniProt P40763). Put plainly: STAT3 Tyr705 phosphorylation in HCC-827 cells (Western blot). The class given is cell-based. Also on record: endogenous in cells. The following applies: serum-free conditions, read-out: IC 50, phosphorylation of STAT3 (Tyr705). How it is done: HCC-827 cells (DSMZ) and K562 cells
STAT3, sequence (P40763 whole entry): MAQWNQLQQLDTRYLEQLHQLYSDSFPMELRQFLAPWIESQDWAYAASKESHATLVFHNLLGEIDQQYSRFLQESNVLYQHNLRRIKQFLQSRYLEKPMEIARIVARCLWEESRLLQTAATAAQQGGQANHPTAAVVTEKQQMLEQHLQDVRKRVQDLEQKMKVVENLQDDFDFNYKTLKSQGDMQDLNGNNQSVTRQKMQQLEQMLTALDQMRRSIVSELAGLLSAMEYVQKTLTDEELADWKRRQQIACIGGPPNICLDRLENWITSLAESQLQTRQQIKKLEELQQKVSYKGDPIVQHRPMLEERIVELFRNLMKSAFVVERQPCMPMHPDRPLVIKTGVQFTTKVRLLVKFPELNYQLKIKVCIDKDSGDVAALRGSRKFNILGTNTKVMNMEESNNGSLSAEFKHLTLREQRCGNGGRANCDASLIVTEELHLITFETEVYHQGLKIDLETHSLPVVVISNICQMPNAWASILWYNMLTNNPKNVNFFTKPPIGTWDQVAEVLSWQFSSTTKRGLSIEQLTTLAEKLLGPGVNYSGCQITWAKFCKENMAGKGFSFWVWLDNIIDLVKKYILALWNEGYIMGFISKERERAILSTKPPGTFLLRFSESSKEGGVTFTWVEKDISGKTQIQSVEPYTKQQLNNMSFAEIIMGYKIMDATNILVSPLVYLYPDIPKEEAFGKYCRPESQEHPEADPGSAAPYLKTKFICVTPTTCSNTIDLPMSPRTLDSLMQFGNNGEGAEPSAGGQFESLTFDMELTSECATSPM
(DSMZ) were cultured in RPMI 1640 medium containing 10% FBS, 2 mM L -glutamine and penicillin/streptomycin. HCC -827 cells were subcultured by briefly rinsing with sterile PBS followed by incubation with 0.25% Trypsin-EDTA solution before inactivation by addition of cell culture medium (all reagents apart from cell lines were from Gibco at Thermo Fisher Scientific). […]
as §8
harvested by washing twice with ice -cold TBS, followed by resuspension in TBS supplemented with protease/phosphatase inhibitors (100 ng/ml aprotinin, 1 mM Na3VO4, 10 mM NaF, 1 mM PMSF). The adherent HCC-827 cells were mechanically separated from the culture surface using plastic cell scrapers (A. Hartenstein). […]
as §3, §4, §5

The structures appear in SMILES notation. pIC50: −log10 of the molar value. “Also recorded” adds a separate entry of the source. Where two headings read alike, the source gives them in different places.

As to `Cc1cc(-c2ccc(C(F)(F)P(=O)(OCOC(=O)C(C)(C)C)OCOC(=O)C(C)(C)C)c(F)c2)cs1` [Compound 9], the “IL12/IL‐18‐mediated IFN‐γ induction” value in the assay on IFN‐γ induction [1] is listed as “strongly reduced; also recorded: inhibits”. Besides, the pIC50 with STAT5a/5b was under 4.60; at STAT4 [4] (2 h, presence of 25% serum, read-out: IC 50, IL‐12‐induced STAT4 phosphorylation), 4.11; at STAT4 [4] (IL-12, absence of serum, read-out: IC 50, STAT4 Tyr693 phosphorylation) it was 5.48; at STAT3, 4.72. Further, the “IFN‐γ induction” value in the assay on IFN‐γ induction [2] is recorded as “inhibited”. The “STAT4 phosphorylation stimulated by IL‐12 alone or co‐stimulated by IL‐12 and IL‐18” value on STAT4 [3] is recorded as “inhibited”. Also, the “inhibition of IL‐12‐induced STAT4 Tyr693 phosphorylation” value on STAT4 [4] (2 h, presence of 25% serum) is listed as “moderately inhibits”. Moreover, the “IL‐12/IL‐18‐mediated STAT4 phosphorylation” value on STAT4 [4] (4 h, 50 ng/ml IL-12 and 10 ng/ml IL-18) is listed as “strongly reduced; also recorded: inhibits”.
